Measured values from US6509367B1 (priority 2001, dated 2003).
Read-outs that look alike come from different tables or passages of the source.

Legend:
mice [1] = experiment: Tail-flick antinociception in mice, compound alone (agonism test); type: in vivo; details: for ED50: Mus musculus, iv, read-out: TF: > dose, 50% activity not achieved at this highest dose tested; for TF: > dose, 50% activity not achieved at this highest dose tested: i.v.
Protocol: (§1) Male ICR mice (25-32 g), purchased from Harlan (Dublin, Va.), were housed in groups of five. All animals were kept in a temperature-controlled (20-22° C.) environment with a 12-hour light-dark cycle (lights on at 7 a.m.). Separate mice were used for testing each drug dose in the in vivo behavioral procedures. The mice were maintained on a […] light: dark cycle, and received food and water ad libitum. Brain tissue for binding studies was obtained from male Sprague-Dawley rats (150-200 g) purchased from Harlan Laboratories (Dublin, Va.).
(§2) Measurement of spontaneous activity in mice occurred in standard activity chambers interfaced with a Digiscan Animal Activity Monitor (Omnitech Electronics, Inc., Columbus, Ohio). A standard tail-flick apparatus (described by Dewey et al., 1970) and a digital thermometer (Fisher Scientific, Pittsburgh, Pa.) were used to measure antinociception and rectal temperature, respectively.
(§3) All drugs were administered to the mice intravenously (i.v.) in the tail vein at a volume of 0.1 ml/10 g.
(§4) Maximum latency of 10 sec was used.

CB1 receptor = CB1 receptor (Rattus norvegicus, UniProt P20272); experiment: biochemical; type: binding; details: for Ki: 1 nM [3H] CP 55,940, rat whole brain P2 membranes, 30° C. for 1 hr
Protocol: as §1
All assays, as described briefly below, were performed in triplicate, and the results represent the combined data from three to six individual experiments. Following decapitation and rapid removal of the brain, whole brain was homogenized and centrifuged. The resulting pellet was termed P1. The supernatant was saved and combined with the two subsequent supernatants obtained from washing of the P1 pellet. The combined supernatant fractions were centrifuged, resulting in the P2 pellet. After further incubation and centrifuging, this pellet was resuspended in assay buffer to a protein concentration of approximately 2 mg/ml. The membrane preparation was quickly frozen in a bath solution of dry ice and 2-methylbutane (Sigma Chemical Co., St. Louis, Mo.), then stored at −80° C. for no more than 2 weeks. […] Binding was initiated by the addition of 150 μg of P2 membrane to test tubes containing 1 nM of [3H] […] Following incubation at 30° C. for 1 hr, binding was terminated by addition of ice-cold buffer and vacuum filtration through pretreated filters in a 12-well sampling manifold (Millipore, Bedford, Mass.). After washing, filters were placed into plastic scintillation vials (Packard, Downer Grove, Ill.) and shaken. The quantity of radioactivity present was determined by liquid scintillation spectrometry.

mice [2] = experiment: Rectal temperature (hypothermia) in mice, compound alone (agonism test); type: in vivo; details: for ED50: Mus musculus, iv, read-out: RT: > dose, 50% activity not achieved at this highest dose tested; for RT: > dose, 50% activity not achieved at this highest dose tested: i.v.
Protocol: as §1, §2, §3, §4

mice [3] = experiment: Spontaneous (locomotor) activity in mice, compound alone (agonism test); type: in vivo; details: for ED50 / SA: > dose, 50% activity not achieved at this highest dose tested: mice, i.v.; for ED50: read-out: SA: > dose, 50% activity not achieved at this highest dose tested; for Max % inhibit of spontaneous locomotor activity, Compound Alone (in words: stimulation instead of inhibition): doses in mg/kg
Protocol: as §1, §2, §3, §4

mice [4] = experiment: Spontaneous activity in mice, compound in combination with 3 mg/kg Δ^9-THC (antagonism test); type: in vivo; details: for SA: maximum % antagonism of 3 mg/kg Δ^9-THC: analog 10 min before Δ^9-THC
Protocol: as §1, §2, §3, §4

mice [5] = experiment: Rectal temperature in mice, compound in combination with 3 mg/kg Δ^9-THC (antagonism test); type: in vivo
Protocol: as §1, §2, §3, §4

mice [6] = experiment: Tail-flick antinociception in mice, compound in combination with 3 mg/kg Δ^9-THC (antagonism test); type: in vivo
Protocol: as §1, §2, §3, §4

[7] = Mus musculus, iv, at 1 mg/kg i.v., read-out: Max stim of spontaneous locomotor activity, Compound Alone

Sequence of CB1 receptor (P20272 whole entry): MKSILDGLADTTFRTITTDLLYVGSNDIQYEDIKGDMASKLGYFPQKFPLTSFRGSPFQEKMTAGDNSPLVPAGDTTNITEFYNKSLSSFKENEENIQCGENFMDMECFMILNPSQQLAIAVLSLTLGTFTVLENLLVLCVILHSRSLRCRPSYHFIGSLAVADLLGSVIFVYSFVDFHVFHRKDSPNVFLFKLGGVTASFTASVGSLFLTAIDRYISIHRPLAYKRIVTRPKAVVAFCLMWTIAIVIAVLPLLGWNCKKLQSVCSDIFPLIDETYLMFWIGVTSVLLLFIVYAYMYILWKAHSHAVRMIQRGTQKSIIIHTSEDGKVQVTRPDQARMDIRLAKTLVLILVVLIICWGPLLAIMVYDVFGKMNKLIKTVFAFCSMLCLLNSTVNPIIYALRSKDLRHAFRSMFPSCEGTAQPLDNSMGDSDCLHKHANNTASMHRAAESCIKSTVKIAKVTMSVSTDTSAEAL

Row | Molecule | ED50 (mice [1]) [mg/kg] | Ki (CB1 receptor; Ki (nM)) [nM] | ED50 (mice [2]) [mg/kg] | change in vivo at 1 mg/kg (mice [3]; [7]) [%] | ED50 (mice [3]; Mus musculus, iv) [mg/kg] | Max % inhibit of spontaneous locomotor activity, Compound Alone (in words: stimulation instead of inhibition) (mice [3]) | TF: > dose, 50% activity not achieved at this highest dose tested (mice [1]) [mg/kg] | Ki (CB1 receptor; read-out: Ki) [nM] | RT: > dose, 50% activity not achieved at this highest dose tested (mice [2]) [mg/kg] | Max stim of spontaneous locomotor activity, Compound Alone (mice [3]; at 1 mg/kg i.v.) | SA: > dose, 50% activity not achieved at this highest dose tested (mice [3]) [mg/kg] | SA: maximum % antagonism of 3 mg/kg Δ^9-THC (mice [4]; at 3 mg/kg i.v.) | Max % inhibit of spontaneous locomotor activity, Compound with 3 mg/kg Δ^9-THC (mice [4]; at 0.3 mg/kg i.v.) | Max stim of spontaneous locomotor activity, Compound with 3 mg/kg Δ^9-THC (mice [4]; at 10 mg/kg i.v.) | other results
1 | Cc1c(COCc2cccc3ccccc23)nn(-c2ccc(Cl)cc2Cl)c1-c1ccc(Cl)cc1 [Compound O-852] | > 10 | 78 ± 10 | > 10 | 52 | > 10 | stim at 1, 3 & 10 | – | – | – | – | – | – | – | – | stimulation of locomotor activity (mice [3]; compound alone, dose not given (see Table 5)): 52%
2 | CCCCCc1ccc(-c2c(-c3ccc(Cl)cc3Cl)nn(C(=O)NN3CCCCC3)c2Br)cc1 [Compound O-1691, N-(N-Piperdyl)-3-(2,4-dichlrophenyl)-4-(4′-pentylphenyl)-5-bromopyrazole-carboxamide] | – | – | – | – | – | – | >30 | 1.5 ± 0.22 | >30 | 66% (1) | >30 | – | – | – | Max % inhibit of spontaneous locomotor activity, Compound Alone (mice [3]; at 3 mg/kg i.v.): 15% (3); Max % inhibit of spontaneous locomotor activity, Compound with 3 mg/kg Δ^9-THC (mice [4]; at 0.1 mg/kg i.v.): 91% (0.1); SA: maximum % antagonism of 3 mg/kg Δ^9-THC (mice [4]; at 0.3 mg/kg i.v.): 6% (0.3); Max stim of spontaneous locomotor activity, Compound with 3 mg/kg Δ^9-THC (mice [4]; at 3 mg/kg i.v.): 150% (3)
3 | CCCCC(C)c1c(C)c(C(=O)NN2CCCCC2)nn1-c1ccc(Cl)cc1Cl (stereo not drawn) [Compound O-1559] | > 30 | – | > 30 | – | > 30 | stim at 3, 10 & 30 | – | 233 | – | – | – | – | – | – | change in vivo at 30 mg/kg (mice [3]; Mus musculus, iv, at 30 mg/kg i.v., read-out: Max stim of spontaneous locomotor activity, Compound Alone): 118%
4 | CCCCCc1ccc(-c2cc(C(=O)NN3CCCCC3)nn2-c2ccc(Cl)cc2Cl)cc1 [Compound O-1710] | > 30 | 27 ± 0.86 | > 30 | 4 | > 30 | – | – | – | – | – | – | 50% (3) | – | – | CB1 binding affinity, fold decrease by hydrogen substitution at position 4 (CB1 receptor; compared to the p-pentylphenyl analog with 4-methyl): 12 fold; RT: maximum % antagonism of 3 mg/kg Δ^9-THC (mice [5]; at 1 mg/kg i.v.): 51% (1); inhibition in vivo at 10 mg/kg (mice [3]; Mus musculus, iv, at 10 mg/kg i.v., read-out: Max % inhibit of spontaneous locomotor activity, Compound Alone): 42%; Max % inhibit of spontaneous locomotor activity, Compound with 3 mg/kg Δ^9-THC (mice [4]; at 10 mg/kg i.v.): 82% (10); Max stim of spontaneous locomotor activity, Compound with 3 mg/kg Δ^9-THC (in words) (mice [4]; at the dose(s) [mg/kg] given in parentheses in the cell): None (0.3, 1, 3, & 10); % MPE: maximum % antagonism of 3 mg/kg Δ^9-THC (mice [6]; at 10 mg/kg i.v.): 62% (10)
5 | N-(N-Piperdyl)-3-(2,4-dichlrophenyl)-4-(4″-pentylphenyl)-5-iodopyrazole-carboxamide [Compound O-1704] | – | – | – | – | – | – | >30 | 2.2 | >30 | 57% (1) | >30 | 65% (3) | 85% (0.3) | 49% (10) | Max % inhibit of spontaneous locomotor activity, Compound Alone (mice [3]; at 30 mg/kg i.v.): 19% (30)
6 | N-(N-Piperdyl)-3-(2,4-dichlrophenyl)-4-(4′-(1′-methylpentyl)phenyl)-5-methylpyrazole carboxamide [Compound O-1690] | – | – | – | – | – | – | >30 | 2.6 ± 0.13 | >30 | – | >30 | – | 88% (0.3) | 39% (10) | antagonist potency, fold increase for hypothermia (mice [5]; compared to O-1302): approximately 3 fold; Max % inhibit of spontaneous locomotor activity, Compound Alone (mice [3]; at 10 mg/kg i.v.): 24% (10); Max stim of spontaneous locomotor activity, Compound Alone (mice [3]; at 30 mg/kg i.v.): 18% (30); SA: maximum % antagonism of 3 mg/kg Δ^9-THC (mice [4]; at 1 mg/kg i.v.): 65% (1); antagonist potency, fold increase for antinociception (mice [6]; compared to O-1302): approximately 3 fold
